Experimental data published in ChEMBL document CHEMBL2380247, “Synthesis and biological evaluation of novel aliphatic amido-quaternary ammonium salts for anticancer chemotherapy: part II” (2013).

What was measured:
Assay type in all cases: functional
PC-3 [1] = assay: Antiproliferative activity against human PC3 cells by SRB assay
NUGC-3 [2] = assay: Antiproliferative activity against human NUGC3 cells by SRB assay
HCT-15 [3] = assay: Antiproliferative activity against human HCT15 cells at 10 uM by SRB assay
ACHN [4] = assay: Antiproliferative activity against human ACHN cells at 0.3 uM by SRB assay
MDA-MB-231 [5] = assay: Antiproliferative activity against human MDA-MB-231 cells at 0.3 uM by SRB assay
HCT-15 [6] = assay: Antiproliferative activity against human HCT15 cells at 0.1 uM by SRB assay
NCI-H23 [7] = assay: Antiproliferative activity against human NCI-H23 cells at 0.3 uM by SRB assay
PC-3 [8] = assay: Antiproliferative activity against human PC3 cells at 1 uM by SRB assay
HCT-15 [9] = assay: Antiproliferative activity against human HCT15 cells at 0.3 uM by SRB assay
ACHN [10] = assay: Antiproliferative activity against human ACHN cells at 3 uM by SRB assay
NCI-H23 [11] = assay: Antiproliferative activity against human NCI-H23 cells by SRB assay
NCI-H23 [12] = assay: Antiproliferative activity against human NCI-H23 cells at 1 uM by SRB assay
ACHN [13] = assay: Antiproliferative activity against human ACHN cells at 0.1 uM by SRB assay
NUGC-3 [14] = assay: Antiproliferative activity against human NUGC3 cells at 0.1 uM by SRB assay
NCI-H23 [15] = assay: Antiproliferative activity against human NCI-H23 cells at 10 uM by SRB assay
MDA-MB-231 [16] = assay: Antiproliferative activity against human MDA-MB-231 cells at 10 uM by SRB assay
MDA-MB-231 [17] = assay: Antiproliferative activity against human MDA-MB-231 cells at 0.1 uM by SRB assay
NUGC-3 [18] = assay: Antiproliferative activity against human NUGC3 cells at 0.3 uM by SRB assay
ACHN [19] = assay: Antiproliferative activity against human ACHN cells at 1 uM by SRB assay
HCT-15 [20] = assay: Antiproliferative activity against human HCT15 cells at 3 uM by SRB assay
NCI-H23 [21] = assay: Antiproliferative activity against human NCI-H23 cells at 3 uM by SRB assay
PC-3 [22] = assay: Antiproliferative activity against human PC3 cells at 0.3 uM by SRB assay
PC-3 [23] = assay: Antiproliferative activity against human PC3 cells at 3 uM by SRB assay
NUGC-3 [24] = assay: Antiproliferative activity against human NUGC3 cells at 1 uM by SRB assay
MDA-MB-231 [25] = assay: Antiproliferative activity against human MDA-MB-231 cells at 3 uM by SRB assay
MDA-MB-231 [26] = assay: Antiproliferative activity against human MDA-MB-231 cells by SRB assay
PC-3 [27] = assay: Antiproliferative activity against human PC3 cells at 10 uM by SRB assay
HCT-15 [28] = assay: Antiproliferative activity against human HCT15 cells by SRB assay
ACHN [29] = assay: Antiproliferative activity against human ACHN cells by SRB assay
NUGC-3 [30] = assay: Antiproliferative activity against human NUGC3 cells at 10 uM by SRB assay
ACHN [31] = assay: Antiproliferative activity against human ACHN cells at 10 uM by SRB assay
NUGC-3 [32] = assay: Antiproliferative activity against human NUGC3 cells at 3 uM by SRB assay
MDA-MB-231 [33] = assay: Antiproliferative activity against human MDA-MB-231 cells at 1 uM by SRB assay
PC-3 [34] = assay: Antiproliferative activity against human PC3 cells at 0.1 uM by SRB assay
HCT-15 [35] = assay: Antiproliferative activity against human HCT15 cells at 1 uM by SRB assay
NCI-H23 [36] = assay: Antiproliferative activity against human NCI-H23 cells at 0.1 uM by SRB assay

| SMILES | GI50 (PC-3 [1]) [nM] | GI50 (NUGC-3 [2]) [nM] | growth, % of control at 10 µM (HCT-15 [3]) [%] | growth, % of control at 0.3 µM (ACHN [4]) [%] | growth, % of control at 0.3 µM (MDA-MB-231 [5]) [%] | growth, % of control at 0.1 µM (HCT-15 [6]) [%] | growth, % of control at 0.3 µM (NCI-H23 [7]) [%] | growth, % of control at 1 µM (PC-3 [8]) [%] | growth, % of control at 3 µM (ACHN [10]) [%] | GI50 (NCI-H23 [11]) [nM] | growth, % of control at 1 µM (NCI-H23 [12]) [%] | growth, % of control at 0.1 µM (ACHN [13]) [%] | growth, % of control at 0.1 µM (NUGC-3 [14]) [%] | growth, % of control at 10 µM (NCI-H23 [15]) [%] | growth, % of control at 10 µM (MDA-MB-231 [16]) [%] | growth, % of control at 0.1 µM (MDA-MB-231 [17]) [%] | growth, % of control at 0.3 µM (NUGC-3 [18]) [%] | growth, % of control at 1 µM (ACHN [19]) [%] | growth, % of control at 3 µM (HCT-15 [20]) [%] | GI50 (HCT-15 [28]) [nM] | further results |
| --- | --- | --- | --- | --- | --- | --- | --- | --- | --- | --- | --- | --- | --- | --- | --- | --- | --- | --- | --- | --- | --- |
| CCCCCCCCCCCCCCCCCCOP(=O)([O-])OC1CC[N+](C)(C)CC1 [PERIFOSINE] | 440 | 540 | – | – | – | – | – | – | – | – | – | – | – | – | – | – | – | – | – | – | – |
| CCCCCCCCCCCCCCCC(=O)N(C)CCC[N+](C)(C)Cc1ccccc1 | 850 | 520 | 91 | 90.9 | 87.3 | 91.2 | 91.3 | 70.9 | 47.9 | 1110 | 91.6 | 96.9 | 110 | -8.96 | 13.2 | 85.3 | 105 | 79.6 | 91.4 | > 10000 | growth, % of control at 0.3 µM (HCT-15 [9]): 96.6%; growth, % of control at 3 µM (NCI-H23 [21]): 25%; growth, % of control at 0.3 µM (PC-3 [22]): 94.9%; growth, % of control at 3 µM (PC-3 [23]): 24.4%; growth, % of control at 1 µM (NUGC-3 [24]): 50.1%; growth, % of control at 3 µM (MDA-MB-231 [25]): 41%; GI50 (MDA-MB-231 [26]): 1350 nM; growth, % of control at 10 µM (PC-3 [27]): 4.74%; GI50 (ACHN [29]): 1300 nM; growth, % of control at 10 µM (NUGC-3 [30]): -29.5%; growth, % of control at 10 µM (ACHN [31]): -10.8%; growth, % of control at 3 µM (NUGC-3 [32]): -9.77%; growth, % of control at 1 µM (MDA-MB-231 [33]): 87.3%; growth, % of control at 0.1 µM (PC-3 [34]): 87.8%; growth, % of control at 1 µM (HCT-15 [35]): 96.5%; growth, % of control at 0.1 µM (NCI-H23 [36]): 85.2% |
| CCCCCCCCCCCCCCCC(=O)N(C)CC[N+](C)(C)CC | 250 | 410 | 17.8 | 95 | 101 | 93.4 | 84.4 | 10.8 | 10.2 | 580 | 53.8 | 110 | 99.1 | -9.2 | -4.7 | 102 | 91.8 | 46.3 | 37.8 | 1010 | growth, % of control at 0.3 µM (HCT-15 [9]): 85.9%; growth, % of control at 3 µM (NCI-H23 [21]): 30.6%; growth, % of control at 0.3 µM (PC-3 [22]): 84%; growth, % of control at 3 µM (PC-3 [23]): -14.5%; growth, % of control at 1 µM (NUGC-3 [24]): 38.2%; growth, % of control at 3 µM (MDA-MB-231 [25]): 21.9%; GI50 (MDA-MB-231 [26]): 660 nM; growth, % of control at 10 µM (PC-3 [27]): -18.9%; GI50 (ACHN [29]): 580 nM; growth, % of control at 10 µM (NUGC-3 [30]): -11.1%; growth, % of control at 10 µM (ACHN [31]): -14.5%; growth, % of control at 3 µM (NUGC-3 [32]): 9.7%; growth, % of control at 1 µM (MDA-MB-231 [33]): 59.1%; growth, % of control at 0.1 µM (PC-3 [34]): 90%; growth, % of control at 1 µM (HCT-15 [35]): 70.5%; growth, % of control at 0.1 µM (NCI-H23 [36]): 91.2% |
| CCCCCCCCCCCCCCCC(=O)N(C)CCC[N+](C)(C)CC | 490 | 220 | 40.3 | 95 | 97.7 | 95.6 | 100 | 44.6 | 41.5 | 780 | 62.9 | 95.1 | 101 | -15.5 | 19 | 98.7 | 77.8 | 62.3 | 69.2 | 3420 | growth, % of control at 0.3 µM (HCT-15 [9]): 98.3%; growth, % of control at 3 µM (NCI-H23 [21]): 31.2%; growth, % of control at 0.3 µM (PC-3 [22]): 101%; growth, % of control at 3 µM (PC-3 [23]): 1.57%; growth, % of control at 1 µM (NUGC-3 [24]): 7.32%; growth, % of control at 3 µM (MDA-MB-231 [25]): 47.2%; GI50 (MDA-MB-231 [26]): 1380 nM; growth, % of control at 10 µM (PC-3 [27]): -17.2%; GI50 (ACHN [29]): 1020 nM; growth, % of control at 10 µM (NUGC-3 [30]): -37.1%; growth, % of control at 10 µM (ACHN [31]): 15.7%; growth, % of control at 3 µM (NUGC-3 [32]): -18.5%; growth, % of control at 1 µM (MDA-MB-231 [33]): 73.3%; growth, % of control at 0.1 µM (PC-3 [34]): 105%; growth, % of control at 1 µM (HCT-15 [35]): 84.4%; growth, % of control at 0.1 µM (NCI-H23 [36]): 103% |
| CCCCCCCCCCCCCC(=O)N(C)CC[N+](CC)(CC)CC | 260 | 160 | 43.1 | 63.2 | 86.6 | 90.7 | 76.2 | 11.7 | 9.4 | 280 | 29 | 103 | 96.3 | -7.7 | -8 | 92.9 | 56.2 | 24.1 | 79.2 | 4330 | growth, % of control at 3 µM (NCI-H23 [21]): 3.7%; growth, % of control at 0.3 µM (PC-3 [22]): 84.7%; growth, % of control at 3 µM (PC-3 [23]): -7.5%; growth, % of control at 1 µM (NUGC-3 [24]): 3%; growth, % of control at 3 µM (MDA-MB-231 [25]): 11.3%; GI50 (MDA-MB-231 [26]): 360 nM; growth, % of control at 10 µM (PC-3 [27]): -22.4%; GI50 (ACHN [29]): 230 nM; growth, % of control at 10 µM (NUGC-3 [30]): -7.5%; growth, % of control at 10 µM (ACHN [31]): -15.5%; growth, % of control at 3 µM (NUGC-3 [32]): -4.9%; growth, % of control at 1 µM (MDA-MB-231 [33]): 33.2%; growth, % of control at 0.1 µM (PC-3 [34]): 95.7%; growth, % of control at 1 µM (HCT-15 [35]): 88%; growth, % of control at 0.1 µM (NCI-H23 [36]): 83.6% |
| CCCCCCCCCCCCCCCC(=O)N1CC[N+](C)(C)CC1 | 480 | 290 | – | – | – | – | – | – | – | – | – | – | – | – | – | – | – | – | – | 580 | – |
